Data on 20 compounds can be found in article PMC8765781, “A platform of assays for the discovery of anti-Zika small-molecules with activity in a 3D-bioprinted outer-blood-retina model” (PLoS ONE, 2022).

SMILES strings stand for the structures. Read-outs that look alike come from different tables or passages of the source.

Test [1] has as its system ZIKV-RLuc (Cambodian strain FSS13025). The test can be described thus: microbe, parasite or virus in culture. The class given is cell-based, Zika virus. Conditions: for AC50: Zika virus, Vero.
Setting [2] is: read-out: Log AC50 (M) (converted).

Regarding `CC[C@@H]1C(=O)N(C)c2cnc(Nc3ccc(C(=O)NC4CCN(C)CC4)cc3OC)nc2N1C1CCCC1` [NCGC00253438-01], in the test on Vero cells, the AC50 came out at 2.33 µM and the “Log AC50 (M)” value is reported as -5.6327 M. For the same compound, in test [1], the “CC-v2 (curve class classification v2 of the dose response curve)” value (“CC-v2” for short) was -1.1; the “Efficacy (difference between neutral response and maximum compound response)” value is on record as -120.006; the “Max Resp (difference between neutral response and compound response for highest compound concentration)” value is given as -99.011; the AC50 amounted to 2.33e-06 M. The AC50 in test [1] (setting [2]) is 2.33e-06 M.
Turning to `NC(=O)C1(N2CCCCC2)CCN(CCCN2c3ccccc3CCc3ccc(Cl)cc32)CC1` [NCGC00253595-01], in the test on Vero cells, the “Log AC50 (M)” value is reported as -4.5827 M. Further, in test [1], the “CC-v2” value is on record as -3; the “Efficacy (difference between neutral response and maximum compound response)” value is reported as -112.083; the “Max Resp (difference between neutral response and compound response for highest compound concentration)” value was -100.465; the AC50 came out at 2.61e-05 M. Also, in test [1] (setting [2]), the AC50 is 2.61e-05 M.
Take `C/C=C(/C)C(=O)O[C@H]1C(C)=C2[C@H]([C@@H]1OC(=O)CCCCCCC)[C@@](C)(OC(C)=O)C[C@H](OC(=O)CCC)[C@@]1(O)[C@H]2OC(=O)[C@@]1(C)O` [NCGC00261947-01]: in the test on Vero cells, half-maximal activity (AC50) was put at 3.29 µM and the “Log AC50 (M)” value is -5.4827 M. For the same compound, in test [1], the “CC-v2” value is on record as -1.2; the “Efficacy (difference between neutral response and maximum compound response)” value is reported as -69.727; the “Max Resp (difference between neutral response and compound response for highest compound concentration)” value is -98.941; the AC50 worked out at 3.29e-06 M. Moreover, in test [1] (setting [2]), the AC50 was 3.29e-06 M.
Take `Cc1ccc(C(N)=O)cc1Nc1nccc(-c2cn(C(C)C)c3cnccc23)n1` [NCGC00263020-01]: in the test on Vero cells, the half-maximal activity concentration (AC50) was found to be 7.37 µM and the “Log AC50 (M)” value is given as -5.1327 M. Moreover, in test [1], the “CC-v2” value is -1.1; the “Efficacy (difference between neutral response and maximum compound response)” value is -104.089; the “Max Resp (difference between neutral response and compound response for highest compound concentration)” value is -98.725; the half-maximal activity concentration (AC50) turned out to be 7.37e-06 M. The half-maximal activity concentration (AC50) in test [1] (setting [2]) was 7.37e-06 M.
`Cc1nc2cnc3ccc(C#Cc4cccnc4)cc3c2n1-c1ccc(C(C)(C)C#N)cc1` [NCGC00263088-01]: in the test on Vero cells, the AC50 is 5.85 µM and the “Log AC50 (M)” value is -5.2327 M. Also, in test [1], the “CC-v2” value is given as -1.1; the “Efficacy (difference between neutral response and maximum compound response)” value was -103.241; the “Max Resp (difference between neutral response and compound response for highest compound concentration)” value is -92.032; the activity was half-maximal at 5.85e-06 M (AC50). For the same compound, in test [1] (setting [2]), the AC50 was 5.85e-06 M.
In the case of `COc1cc(OC2CCN(C)CC2)ccc1Nc1ncc2c(n1)n(C1CCCC1)c(=O)n2C` [NCGC00263090-01], in the test with Vero cells, the concentration at half-maximal activity (AC50) came out at 6.76 µM and the “Log AC50 (M)” value is listed as -5.1699 M. Also, in test [1], the “CC-v2” value was -1.2; the “Efficacy (difference between neutral response and maximum compound response)” value is listed as -50.634; the “Max Resp (difference between neutral response and compound response for highest compound concentration)” value is -54.42; the AC50 was found to be 6.76e-06 M. Further, in test [1] (setting [2]), the AC50 is 6.76e-06 M.
`CC(=O)N(C)C1(c2ccccc2)CCN(CCC[C@]2(c3ccc(Cl)c(Cl)c3)CCCN(C(=O)c3ccccc3)C2)CC1` [NCGC00263110-01]: in the test with Vero cells, the AC50 was determined as 18.5 µM and the “Log AC50 (M)” value is on record as -4.7327 M. In test [1], the “CC-v2” value was -2.1; the “Efficacy (difference between neutral response and maximum compound response)” value is recorded as -124.29; the “Max Resp (difference between neutral response and compound response for highest compound concentration)” value was -100.789; the activity was half-maximal at 1.85e-05 M (AC50). Also, the concentration at half-maximal activity (AC50) in test [1] (setting [2]) is 1.85e-05 M.
Consider `C[C@@H](Oc1cc(-n2cnc3ccc(CN4CCN(C)CC4)cc32)sc1C(N)=O)c1ccccc1C(F)(F)F` [NCGC00263112-01], for which, in the test with Vero cells, the activity was half-maximal at 6.76 µM (AC50) and the “Log AC50 (M)” value is -5.1699 M. Moreover, in test [1], the “CC-v2” value is -2.1; the “Efficacy (difference between neutral response and maximum compound response)” value is -113.144; the “Max Resp (difference between neutral response and compound response for highest compound concentration)” value was -99.466; the AC50 is 6.76e-06 M. Moreover, the concentration at half-maximal activity (AC50) in test [1] (setting [2]) is 6.76e-06 M.
For `CC(=O)c1c(C)c2cnc(Nc3ccc(N4CCNCC4)cn3)nc2n(C2CCCC2)c1=O` [NCGC00263129-04], in the test on Vero cells, the concentration at half-maximal activity (AC50) was determined as 16.5 µM and the “Log AC50 (M)” value is -4.7827 M. Moreover, in test [1], the “CC-v2” value is -2.2; the “Efficacy (difference between neutral response and maximum compound response)” value is on record as -88.43; the “Max Resp (difference between neutral response and compound response for highest compound concentration)” value is given as -70.898; half-maximal activity (AC50) was put at 1.65e-05 M. The AC50 in test [1] (setting [2]) is 1.65e-05 M.
With `Nc1nc(Nc2ccc([S+](N)(=O)[O-])cc2)nn1C(=O)c1c(F)cccc1F` [NCGC00263151-01], in the test with Vero cells, the half-maximal activity concentration (AC50) was 16.5 µM and the “Log AC50 (M)” value is listed as -4.7827 M. In test [1], the “CC-v2” value is given as -2.1; the “Efficacy (difference between neutral response and maximum compound response)” value is listed as -94.324; the “Max Resp (difference between neutral response and compound response for highest compound concentration)” value is -90.046; the concentration at half-maximal activity (AC50) was found to be 1.65e-05 M. Moreover, the AC50 in test [1] (setting [2]) was 1.65e-05 M.
With `Cc1ccc(C(=O)Nc2ccc(CN3CCN(C)CC3)c(C(F)(F)F)c2)cc1C#Cc1cnc2cccnn12` [NCGC00263152-01], in the test with Vero cells, the AC50 came out at 1.85 µM and the “Log AC50 (M)” value is -5.7327 M. Further, in test [1], the “CC-v2” value is recorded as -1.1; the “Efficacy (difference between neutral response and maximum compound response)” value is listed as -88.579; the “Max Resp (difference between neutral response and compound response for highest compound concentration)” value is recorded as -98.949; the AC50 was 1.85e-06 M. Further, the AC50 in test [1] (setting [2]) is 1.85e-06 M.
As for `CC(=O)Nc1ccc([C@H](C)C(=O)Nc2ncc(C(C)C)s2)cc1` [NCGC00263191-01], in the test on Vero cells, the AC50 was found to be 2.33 µM and the “Log AC50 (M)” value is -5.6327 M. In test [1], the “CC-v2” value is -1.1; the “Efficacy (difference between neutral response and maximum compound response)” value is reported as -109.113; the “Max Resp (difference between neutral response and compound response for highest compound concentration)” value was -98.511; the half-maximal activity concentration (AC50) worked out at 2.33e-06 M. The half-maximal activity concentration (AC50) in test [1] (setting [2]) was 2.33e-06 M.
With `C/C=C1\NC(=O)[C@H]2CSSCC/C=C\[C@H](CC(=O)N[C@H](C(C)C)C(=O)N2)OC(=O)[C@H](C(C)C)NC1=O` [NCGC00263220-05], in the test on Vero cells, the activity was half-maximal at 0.233 µM (AC50) and the “Log AC50 (M)” value is reported as -6.6327 M. Moreover, in test [1], the “CC-v2” value was -1.1; the “Efficacy (difference between neutral response and maximum compound response)” value is -96.055; the “Max Resp (difference between neutral response and compound response for highest compound concentration)” value is -99.405; the half-maximal activity concentration (AC50) was found to be 2.33e-07 M. In addition, the AC50 in test [1] (setting [2]) is 2.33e-07 M.
In the case of `CCOC(CN1C(=O)[C@](CC(=O)Nc2ccc(C)cc2)(NC(=O)Nc2ccc(C)cc2)c2ccccc21)OCC` [NCGC00263225-01], in the test on Vero cells, the activity was half-maximal at 23.3 µM (AC50) and the “Log AC50 (M)” value is on record as -4.6327 M. In test [1], the “CC-v2” value is listed as -2.1; the “Efficacy (difference between neutral response and maximum compound response)” value is -106.258; the “Max Resp (difference between neutral response and compound response for highest compound concentration)” value is reported as -97.88; the AC50 amounted to 2.33e-05 M. Besides, the half-maximal activity concentration (AC50) in test [1] (setting [2]) is 2.33e-05 M.
Turning to `Nc1ccc(C(=O)c2cc3c(ccc4ccccc43)[nH]2)cc1` [NCGC00263233-01], in the test with Vero cells, the concentration at half-maximal activity (AC50) is 20.8 µM and the “Log AC50 (M)” value was -4.6827 M. Moreover, in test [1], the “CC-v2” value is -2.1; the “Efficacy (difference between neutral response and maximum compound response)” value is recorded as -115.821; the “Max Resp (difference between neutral response and compound response for highest compound concentration)” value is -99.398; the AC50 came to 2.08e-05 M. Moreover, the AC50 in test [1] (setting [2]) is 2.08e-05 M.
As for `CN(C)c1ccc(C(=O)NCCCCCCC(=O)NO)cc1` [NCGC00263617-05], in the test on Vero cells, the activity was half-maximal at 10.4 µM (AC50) and the “Log AC50 (M)” value is recorded as -4.9827 M. In addition, in test [1], the “CC-v2” value was -1.1; the “Efficacy (difference between neutral response and maximum compound response)” value is given as -93.524; the “Max Resp (difference between neutral response and compound response for highest compound concentration)” value is on record as -92.631; the concentration at half-maximal activity (AC50) came to 1.04e-05 M. Further, the AC50 in test [1] (setting [2]) was 1.04e-05 M.
Consider `CN1CCCC(CC2c3ccccc3Sc3ccccc32)C1.Cl` (stereo not shown) [NCGC00273481-01], for which, in the test on Vero cells, half-maximal activity (AC50) was put at 36.9 µM and the “Log AC50 (M)” value is reported as -4.4327 M. Also, in test [1], the “CC-v2” value is -3; the “Efficacy (difference between neutral response and maximum compound response)” value was -90.373; the “Max Resp (difference between neutral response and compound response for highest compound concentration)” value is recorded as -72.236; the half-maximal activity concentration (AC50) worked out at 3.69e-05 M. Further, the AC50 in test [1] (setting [2]) was 3.69e-05 M.
In the case of `Cc1c(Cn2c(C)nc3c(C(=O)O)cc(N4CCOCC4)cc32)cccc1C(F)(F)F` [NCGC00345796-01], in the test with Vero cells, half-maximal activity (AC50) was put at 14.7 µM and the “Log AC50 (M)” value is on record as -4.8327 M. In addition, in test [1], the “CC-v2” value is listed as -2.2; the “Efficacy (difference between neutral response and maximum compound response)” value is -74.499; the “Max Resp (difference between neutral response and compound response for highest compound concentration)” value is reported as -73.923; half-maximal activity (AC50) was put at 1.47e-05 M. Besides, in test [1] (setting [2]), the AC50 is 1.47e-05 M.
As for `O=C(CCCCCCNC(=O)c1cnc(N(c2ccccc2)c2ccccc2)nc1)NO` [NCGC00345802-01], in the test with Vero cells, the AC50 was 18.5 µM and the “Log AC50 (M)” value is given as -4.7327 M. In addition, in test [1], the “CC-v2” value is listed as -2.1; the “Efficacy (difference between neutral response and maximum compound response)” value is on record as -102.183; the “Max Resp (difference between neutral response and compound response for highest compound concentration)” value is -84.021; the AC50 came to 1.85e-05 M. Besides, in test [1] (setting [2]), the AC50 is 1.85e-05 M.
In the case of `CN(C)Cc1c(C(=O)NCCOc2ccc(C(=O)NO)cc2)oc2ccccc12` [NCGC00346486-01], in the test on Vero cells, the activity was half-maximal at 9.28 µM (AC50) and the “Log AC50 (M)” value is -5.0327 M. Further, in test [1], the “CC-v2” value is reported as -1.1; the “Efficacy (difference between neutral response and maximum compound response)” value is given as -96.645; the “Max Resp (difference between neutral response and compound response for highest compound concentration)” value is -98.785; the half-maximal activity concentration (AC50) was 9.28e-06 M. Moreover, the AC50 in test [1] (setting [2]) is 9.27e-06 M.

As a reminder, the AC50 is the midpoint of the concentration-response curve, whichever way the signal moves.
